Patent US20220105150A1, “AMPHIPATHIC ALPHA-HELICAL ANTIMICROBIAL PEPTIDES TREAT INFECTIONS BY GRAM-NEGATIVE PATHOGENS” (priority 2019, published 2022)
Where “and” joins values, the source holds several entries; their conditions need not be identical. Equal values may be shown once.

Test system: human red blood cells
Assay: Hemolytic activity on human red blood cells
Conditions: for HC50: 50% hemolysis of human red blood cells after 18 h at 37° C.; for HC50 Fold Decrease: same peptide with and without specificity determinants
Description: For comparison, the inventors also determined the hemolytic activity after 18 hours at 37° C. Hemolysis can be determined with red blood cells (RBC) from various species including human red blood cells (hRBC).
The coupling procedure used 5 equivalents of Fmoc-D-amino acid or Fmoc-L-amino acid and HCTU (O-(1H-6-chlorobenzotriazole-1-yl)-1,1,3,3-tetramethyluronium hexafluorophosphate) and 6-Cl-HOBt (1-hydroxy-6-chloro-benztriazole) at 4.5 equivalents in DMF (Fisher Scientific, Denver, Colo.) and N-diisopropylethylamine (DIPEA) 10 equivalents (Oakwood Products, Inc., Estill, S.C.) in N-methyl-2-pyrrolidinone (NMP) (Fisher Scientific, Denver, Colo.) with the first and second couplings at room temperature for 30 min each. The deprotection procedure (removal of Fmoc protecting group) was carried out by treatment of the resin with 0.1 M HOBt (1-hydroxybenzotriazole) in DMF with 20% piperidine for 30 min. […] The resin was removed by filtration and peptide was precipitated with ice-cooled ethyl ether on ice for 15 min. Ether was decanted, the peptide was washed twice with ether and redissolved in acetonitrile/water (1:1, with 0.2% TFA) and the solution lyophilized to obtain the crude peptide. • Analytical and Preparative Purification by Reversed-Phase Chromatography: Analytical RP-HPLC: Column, Luna C18 (2), 250×4.6 mm I.D., 5 μm particle size, 100 Å pore size from Phenomenex (Torrance, Calif.). Run conditions: linear AB gradient (1% acetonitrile/min, starting from 2% acetonitrile) at a flow-rate of 1 ml/min, where eluent A is 0.2% aq. TFA and eluent B is 0.18% TFA in acetonitrile; temperature, 30° C. Preparative RP-HPLC: Peptides were dissolved in 0.2% aq. TFA containing 2% acetonitrile to a final concentration of 10 mg/ml. Following filtration through a 0.45 μm Millipore filter and subsequently through a 0.22 μm filter, the peptide solutions were loaded onto the column via multiple 20-ml injections into a 20-ml injection loop at a flow-rate of 10 ml/min. Column, Luna C18 (2), 250×30 mm I.D., 5 um particle size, 100 Å pore size from Phenomenex. Run conditions: 2% acetonitrile/min gradient up to an acetonitrile concentration 10% below that required to elute the peptide during analytical RP-HPLC, then shallow gradient elution (0.05% or 0.1% acetonitrile/min depending on the complexity of impurities near the product of interest on the analytical run of the crude peptide) at a flow-rate of 10 ml/min (same eluents as shown above for analytical RP-HPLC); at room temperature. • Temperature Profiling of Peptides on Reversed-phase HPLC to Measure Dimerization and Oligomerization: Purified peptides were analyzed on an Agilent 1200 series liquid chromatograph for temperature profiling using a Zorbax 300 SB-C8 column (150 mm×2.1 mm I.D.; 5 μm particle size, 300 Å pore size) from Agilent Technologies. […] Temperature profiling was carried out on peptide mixtures run at each temperature in 2° C. increments from 5° C. to 41° C. and 10° C. increments from 5° C. to 75° C. Twenty minutes was allowed between runs for temperature equilibration. • Characterization of Helical Structure: The mean residue molar ellipticities of peptides were determined by circular dichroism (CD) spectroscopy, using a Jasco J-815 spectropolarimeter (Jasco Inc. Easton, Md., USA) at 5° C. under KP buffer (50 mM NaH2PO4/Na2HPO4/100 mM KCl, pH 7.0) as well as in the presence of an α-helix inducing solvent, 2,2,2-trifluoroethanol, TFE, (50 mM NaH2PO4/Na2HPO4/100 mM KCl, pH 7.0 buffer/50% TFE). A 10-fold dilution of an approximately 500 μM stock solution of the peptide analogs was loaded into a 0.1 cm quartz cell and its ellipticity scanned from 195 to 250 nm.

Structure (SMILES): CC(=O)N[C@H](CCCCN)C(=O)N[C@H](CC(C)C)C(=O)N[C@H](CCN)C(=O)N[C@H](CO)C(=O)N[C@H](CC(C)C)C(=O)N[C@H](CC(C)C)C(=O)N[C@H](CCN)C(=O)N[C@@H](C(=O)N[C@H](CC(C)C)C(=O)N[C@H](CO)C(=O)N[C@H](CCN)C(=O)N[C@H](C)C(=O)N[C@H](C)C(=O)N[C@H](C)C(=O)N[C@H](C)C(=O)N[C@H](C)C(=O)N[C@H](CC(C)C)C(=O)N[C@H](CCN)C(=O)N[C@@H](C(=O)N[C@H](CC(C)C)C(=O)N[C@H](CC(C)C)C(=O)N[C@H](CCN)C(=O)N[C@H](C)C(=O)N[C@H](CC(C)C)C(=O)N[C@H](CO)C(=O)N[C@H](CCN)C(N)=O)[C@H](C)O)[C@H](C)O [D86(K13A/K16A)-(Lys^1-6Dab-1), Ac-KL(Dab)SLL(Dab)TLS(Dab)AAAAAL(Dab)TLL(Dab)ALS(Dab)-amide]
- HC50: 20.0 μg/mL and 7.7 μM
- HC50 Fold Decrease: >−96.4

Structure (SMILES): CC(=O)N[C@H](CCCCN)C(=O)N[C@H](CC(C)C)C(=O)N[C@H](CN)C(=O)N[C@H](CO)C(=O)N[C@H](CC(C)C)C(=O)N[C@H](CC(C)C)C(=O)N[C@H](CN)C(=O)N[C@@H](C(=O)N[C@H](CC(C)C)C(=O)N[C@H](CO)C(=O)N[C@H](CN)C(=O)N[C@H](C)C(=O)N[C@H](C)C(=O)N[C@H](C)C(=O)N[C@H](C)C(=O)N[C@H](C)C(=O)N[C@H](CC(C)C)C(=O)N[C@H](CN)C(=O)N[C@@H](C(=O)N[C@H](CC(C)C)C(=O)N[C@H](CC(C)C)C(=O)N[C@H](CN)C(=O)N[C@H](C)C(=O)N[C@H](CC(C)C)C(=O)N[C@H](CO)C(=O)N[C@H](CN)C(N)=O)[C@H](C)O)[C@H](C)O [D105(K13A/K16A)-(Lys^1-6Dap-1), Ac-KL(Dap)SLL(Dap)TLS(Dap)AAAAAL(Dap)TLL(Dap)ALS(Dap)-amide]
- HC50: 7.2 μg/mL and 2.9 μM
- HC50 Fold Decrease: >−395.9
